Results on five compounds are retold here after US10570184B2, “GLP-1/glucagon receptor co-agonists for medical use” (Novo Nordisk A/S, priority 2014, dated 2020).

The target of this assay is T1, human GLP-1 receptor (Homo sapiens, UniProt P43220).
T1 construct: expressed in transfected cells; host or cells: membranes of BHK cells (parent BHKTS13), clone FCW467-12A
The experiment in a line: Assay (II)(a) GLP-1 receptor binding, 125I-GLP-1 displacement SPA on BHK membranes. To be noted: without presence of serum albumin; read-out: GLP-1R IC50 (nM) [Assay (II)(a)]. The method, boiled down: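 Membranes from BHK cells (clone FCW467-12A) stably expressing human GLP-1R were incubated with serially diluted compounds (8×10EE-13 to 8×10EE-7 M before addition) and [125I]-GLP-1-(7-36)NH2 with WGA SPA beads, 2 h at 30° C, pH 7.4. IC50 taken from displacement by non-linear regression. Run at ≤0.001% or 2.0% final serum albumin.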

Starred links: 1 amine or outer side, 2 acyl side, 3 side chain; linkers in the order of their positions; H or OH if unused. Non-standard residues stand in square brackets, D forms with d. Residues, ends and D or L forms follow the SMILES beside them. Groups on a side chain read outwards from the residue. *: point of attachment. C18 diacid = O=C(O)CCCCCCCCCCCCCCCCC(=O)*; γGlu = O=C(O)[C@H](CCC(=O)[*:2])N[*:1]; Ac4c = NC1(C(=O)O)CCC1; AEEA = NCCOCCOCC(=O)O; Aib = CC(C)(N)C(=O)O

T1 sequence (P43220 24-463): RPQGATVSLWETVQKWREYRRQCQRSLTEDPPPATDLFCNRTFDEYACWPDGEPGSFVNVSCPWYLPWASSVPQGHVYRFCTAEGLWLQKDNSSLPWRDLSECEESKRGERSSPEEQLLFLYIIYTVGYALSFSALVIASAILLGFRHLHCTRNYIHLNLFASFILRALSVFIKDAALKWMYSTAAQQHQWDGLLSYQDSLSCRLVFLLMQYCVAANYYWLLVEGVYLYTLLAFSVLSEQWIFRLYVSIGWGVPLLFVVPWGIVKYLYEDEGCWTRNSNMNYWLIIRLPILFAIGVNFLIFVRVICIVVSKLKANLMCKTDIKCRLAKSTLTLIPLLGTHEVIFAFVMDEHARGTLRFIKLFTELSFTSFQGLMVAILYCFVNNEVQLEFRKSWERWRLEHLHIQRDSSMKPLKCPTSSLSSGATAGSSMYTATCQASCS

In general, IC50 refers to the concentration at which inhibition is half-maximal. As for `CC[C@H](C)[C@H](NC(=O)[C@H](CC(=O)O)NC(=O)[C@H](CO)NC(=O)[C@@H](NC(=O)[C@H](Cc1ccccc1)NC(=O)[C@@H](NC(=O)CNC(=O)[C@H](CCC(N)=O)NC(=O)C1(NC(=O)[C@@H](N)Cc2c[nH]cn2)CCC1)[C@@H](C)O)[C@@H](C)O)C(=O)N[C@@H](CO)C(=O)N[C@@H](CCCCN)C(=O)N[C@@H](Cc1ccc(O)cc1)C(=O)N[C@@H](CC(C)C)C(=O)N[C@@H](CCC(=O)O)C(=O)N[C@@H](CO)C(=O)N[C@@H](CCCNC(=N)N)C(=O)N[C@@H](CCCNC(=N)N)C(=O)N[C@@H](C)C(=O)N[C@@H](CCCNC(=N)N)C(=O)N[C@@H](CCC(=O)O)C(=O)N[C@@H](Cc1ccccc1)C(=O)N[C@H](C(=O)N[C@@H](CCC(N)=O)C(=O)N[C@@H](Cc1c[nH]c2ccccc12)C(=O)N[C@@H](CC(C)C)C(=O)N[C@H](C(=O)N[C@@H](CCCCNC(=O)CC[C@H](NC(=O)CC[C@H](NC(=O)COCCOCCNC(=O)COCCOCCNC(=O)CC[C@H](NC(=O)CC[C@H](NC(=O)CCCCCCCCCCCCCCCCC(=O)O)C(=O)O)C(=O)O)C(=O)O)C(=O)O)C(=O)N[C@H](C(N)=O)[C@@H](C)O)[C@@H](C)CC)C(C)C` [Chem. 26, N^ε28-[(4S)-4-carboxy-4-[[(4S)-4-carboxy-4-[[2-[2-[2-[[2-[2-[2-[[(4S)-4-carboxy-4-[[(4S)-4-carboxy-4-(17-carboxyheptadecanoylamino)butanoyl]amino]butanoyl]amino]ethoxy]ethoxy]acetyl]amino]ethoxy]ethoxy]acetyl]amino]butanoyl]amino]butanoyl]-[Acb2,Ile10,Glu15,Arg20,Glu21,Ile27,Lys28]-Glucagon amide] (H-H[Ac4c]QGTFTSDISKYLESRRAREFVQWLIK([γGlu-γGlu-AEEA-AEEA-γGlu-γGlu-C18 diacid])T-NH2; N-terminus assumed), the IC50 stood at 0.4 nM. In the case of `CC[C@H](C)[C@H](NC(=O)[C@H](CC(C)C)NC(=O)[C@H](Cc1c[nH]c2ccccc12)NC(=O)[C@H](CCC(N)=O)NC(=O)[C@@H](NC(=O)[C@H](Cc1ccccc1)NC(=O)[C@H](CC(=O)O)NC(=O)[C@H](CCCNC(=N)N)NC(=O)[C@H](C)NC(=O)[C@H](CCCNC(=N)N)NC(=O)[C@H](CCCNC(=N)N)NC(=O)[C@H](C)NC(=O)[C@H](CC(=O)O)NC(=O)[C@H](CC(C)C)NC(=O)[C@H](Cc1ccc(O)cc1)NC(=O)[C@H](CCCCN)NC(=O)[C@H](CO)NC(=O)[C@H](CC(C)C)NC(=O)[C@H](CC(=O)O)NC(=O)[C@H](CO)NC(=O)[C@@H](NC(=O)[C@H](Cc1ccccc1)NC(=O)[C@@H](NC(=O)CNC(=O)[C@H](CCC(N)=O)NC(=O)C(C)(C)NC(=O)[C@@H](N)Cc1c[nH]cn1)[C@@H](C)O)[C@@H](C)O)C(C)C)C(=O)N[C@@H](CO)C(=O)N[C@@H](CCCCNC(=O)CC[C@H](NC(=O)CC[C@H](NC(=O)COCCOCCNC(=O)COCCOCCNC(=O)CC[C@H](NC(=O)CCCCCCCCCCCCCCCCC(=O)O)C(=O)O)C(=O)O)C(=O)O)C(N)=O` [Chem. 27, N^ε29-[(4S)-4-carboxy-4-[[(4S)-4-carboxy-4-[[2-[2-[2-[[2-[2-[2-[[(4S)-4-carboxy-4-(17-carboxyheptadecanoylamino)butanoyl]amino]ethoxy]ethoxy]acetyl]amino]ethoxy]ethoxy]acetyl]amino]butanoyl]amino]butanoyl]-[Aib2,Leu10,Ala16,Arg20,Ile27,Ser28,Lys29]-Glucagon amide] (H-H[Aib]QGTFTSDLSKYLDARRARDFVQWLISK([γGlu-γGlu-AEEA-AEEA-γGlu-C18 diacid])-NH2; N-terminus assumed), the IC50 is 0.2 nM. Consider `CC[C@H](C)[C@H](NC(=O)[C@H](CC(C)C)NC(=O)[C@H](Cc1c[nH]c2ccccc12)NC(=O)[C@H](CCC(N)=O)NC(=O)[C@@H](NC(=O)[C@H](Cc1ccccc1)NC(=O)[C@H](CCC(=O)O)NC(=O)[C@H](CCCNC(=N)N)NC(=O)[C@H](C)NC(=O)[C@H](CCCNC(=N)N)NC(=O)[C@H](CCCNC(=N)N)NC(=O)[C@H](C)NC(=O)[C@H](CC(=O)O)NC(=O)[C@H](CC(C)C)NC(=O)[C@H](Cc1ccc(O)cc1)NC(=O)[C@H](CCCCN)NC(=O)[C@H](CO)NC(=O)[C@H](CC(C)C)NC(=O)[C@H](CC(=O)O)NC(=O)[C@H](CO)NC(=O)[C@@H](NC(=O)[C@H](Cc1ccccc1)NC(=O)[C@@H](NC(=O)CNC(=O)[C@H](CCC(N)=O)NC(=O)C(C)(C)NC(=O)[C@@H](N)Cc1c[nH]cn1)[C@@H](C)O)[C@@H](C)O)C(C)C)C(=O)N[C@@H](CO)C(=O)N[C@@H](CCCCNC(=O)CC[C@H](NC(=O)CC[C@H](NC(=O)COCCOCCNC(=O)COCCOCCNC(=O)CC[C@H](NC(=O)CCCCCCCCCCCCCCCCC(=O)O)C(=O)O)C(=O)O)C(=O)O)C(N)=O` [Chem. 28, N^ε29-[(4S)-4-carboxy-4-[[(4S)-4-carboxy-4-[[2-[2-[2-[[2-[2-[2-[[(4S)-4-carboxy-4-(17-carboxyheptadecanoylamino)butanoyl]amino]ethoxy]ethoxy]acetyl]amino]ethoxy]ethoxy]acetyl]amino]butanoyl]amino]butanoyl]-[Aib2,Leu10,Ala16,Arg20,Glu21,Ile27,Ser28,Lys29]-Glucagon amide] (H-H[Aib]QGTFTSDLSKYLDARRAREFVQWLISK([γGlu-γGlu-AEEA-AEEA-γGlu-C18 diacid])-NH2; N-terminus assumed), for which the IC50 is 0.2 nM. Turning to `CC[C@H](C)[C@H](NC(=O)[C@H](CC(C)C)NC(=O)[C@H](Cc1c[nH]c2ccccc12)NC(=O)[C@H](C)NC(=O)[C@@H](NC(=O)[C@H](Cc1ccccc1)NC(=O)[C@H](CC(=O)O)NC(=O)[C@H](CCCNC(=N)N)NC(=O)[C@H](C)NC(=O)[C@H](CCCNC(=N)N)NC(=O)[C@H](CCCNC(=N)N)NC(=O)[C@H](C)NC(=O)[C@H](CC(=O)O)NC(=O)[C@H](CC(C)C)NC(=O)[C@H](Cc1ccc(O)cc1)NC(=O)[C@H](CCCCN)NC(=O)[C@H](CO)NC(=O)[C@H](Cc1ccc(O)cc1)NC(=O)[C@H](CC(=O)O)NC(=O)[C@H](CO)NC(=O)[C@@H](NC(=O)[C@H](Cc1ccccc1)NC(=O)[C@@H](NC(=O)CNC(=O)[C@H](CCC(N)=O)NC(=O)C(C)(C)NC(=O)[C@@H](N)Cc1c[nH]cn1)[C@@H](C)O)[C@@H](C)O)C(C)C)C(=O)N[C@@H](CCCCNC(=O)CC[C@H](NC(=O)CC[C@H](NC(=O)COCCOCCNC(=O)COCCOCCNC(=O)CC[C@H](NC(=O)CCCCCCCCCCCCCCCCC(=O)O)C(=O)O)C(=O)O)C(=O)O)C(=O)N[C@H](C(N)=O)[C@@H](C)O` [Chem. 32, N^ε28-[(4S)-4-carboxy-4-[[(4S)-4-carboxy-4-[[2-[2-[2-[[2-[2-[2-[[(4S)-4-carboxy-4-(17-carboxyheptadecanoylamino)butanoyl]amino]ethoxy]ethoxy]acetyl]amino]ethoxy]ethoxy]acetyl]amino]butanoyl]amino]butanoyl]-[Aib2,Ala16,Arg20,Ala24,Ile27,Lys28]-Glucagon amide] (H-H[Aib]QGTFTSDYSKYLDARRARDFVAWLIK([γGlu-γGlu-AEEA-AEEA-γGlu-C18 diacid])T-NH2), the IC50 was 0.3 nM. As for `CC[C@H](C)[C@H](NC(=O)[C@H](CC(C)C)NC(=O)[C@H](Cc1c[nH]c2ccccc12)NC(=O)[C@H](C)NC(=O)[C@@H](NC(=O)[C@H](Cc1ccccc1)NC(=O)[C@H](CC(=O)O)NC(=O)[C@H](CCC(N)=O)NC(=O)[C@H](C)NC(=O)[C@H](CCCNC(=N)N)NC(=O)[C@H](CCCNC(=N)N)NC(=O)[C@H](CO)NC(=O)[C@H](CCC(=O)O)NC(=O)[C@H](CC(C)C)NC(=O)[C@H](Cc1ccc(O)cc1)NC(=O)[C@H](CCCCN)NC(=O)[C@H](CO)NC(=O)[C@H](Cc1ccc(O)cc1)NC(=O)[C@H](CC(=O)O)NC(=O)[C@H](CO)NC(=O)[C@@H](NC(=O)[C@H](Cc1ccccc1)NC(=O)[C@@H](NC(=O)CNC(=O)[C@H](CCC(N)=O)NC(=O)C(C)(C)NC(=O)[C@@H](N)Cc1c[nH]cn1)[C@@H](C)O)[C@@H](C)O)C(C)C)C(=O)N[C@@H](CCCCNC(=O)CC[C@H](NC(=O)CC[C@H](NC(=O)COCCOCCNC(=O)COCCOCCNC(=O)CC[C@H](NC(=O)CCCCCCCCCCCCCCCCC(=O)O)C(=O)O)C(=O)O)C(=O)O)C(=O)N[C@H](C(N)=O)[C@@H](C)O` [Chem. 34, N^ε28-[(4S)-4-carboxy-4-[[(4S)-4-carboxy-4-[[2-[2-[2-[[2-[2-[2-[[(4S)-4-carboxy-4-(17-carboxyheptadecanoylamino)butanoyl]amino]ethoxy]ethoxy]acetyl]amino]ethoxy]ethoxy]acetyl]amino]butanoyl]amino]butanoyl]-[Aib2,Glu15,Ala24,Ile27,Lys28]-Glucagon amide] (H-H[Aib]QGTFTSDYSKYLESRRAQDFVAWLIK([γGlu-γGlu-AEEA-AEEA-γGlu-C18 diacid])T-NH2), the IC50 stood at 2.2 nM.
